What all share (type): in vivo
The subject of assay [1] is Tomato Late Blight organism Phytophthora infestans. In words: whole plant or invertebrate.
In assay [2] the test system is Bean Powdery Mildew organism Erysiphe polygoni. In words: Bean Powdery Mildew control, seedling bean plants. The note with it: inoculated 1 day later, 10 days. The protocol: The compounds of the invention were tested for the control of the Bean Powdery Mildew organism Erysiphe polygoni. Seedling bean plants were sprayed with a 250-ppm solution of the test compound in acetone, water and a nonionic emulsifier. The sprayed plants were then inoculated 1 day later with the organism. The plants were maintained for 10 days at temperatures of 68° F. at night with daytime temperatures of 72° F. to 80° F.; relative humidity was maintained at 40% to 60%. The percent disease control provided by a given test compound was based on the percent disease reduction relative to the untreated check plants.

The test system of assay [3] is Grape Downy Mildew organism Plasmopara viticola. In words: Grape Downy Mildew control, detached grape leaves. As to conditions: held 7 to 9 days after 2 days incubation. As for the experimental part:
The compounds of the invention were tested for the control of the Grape Downy Mildew organism Plasmopara viticola. Detached leaves, between 70 mm and 85 mm in diameter, 7-week-old Vitis vinifera cultivar Emperor grape seedlings were used as hosts. The leaves were sprayed with a 250-ppm solution of the test compound in acetone. The sprayed leaves were dried, inoculated with a spore suspension of the organism, placed in a humid environmental chamber and incubated at 66° F. to 68° F. and about 100% relative humidity. After incubation for 2 days, the plants were then held in a greenhouse 7 to 9 days; then the amount of disease control was determined. The percent disease control provided by a given test compound was based on the percent disease reduction relative to untreated check plants.

The next assay deals with Uromyces phaseoli tipica. As to the kind of experiment: Leaf Rust (Bean Rust) control, pinto beans. The note with it: about 14 days. As for the experimental part: The Leaf Rust test was made using pinto beans. The pathogen was Uromyces phaseoli tipica. The pinto bean plants were sprayed with a 250-ppm solution of the test compound in an acetone-water mixture containing a nonionic emulsifier. The treated plants were inoculated thereafter with the pathogen and then incubated in an environmental chamber for approximately 20 hours at 100% relative humidity and a temperature of 68° F. to 70° F. The plants were then removed from the chamber, allowed to dry, and then maintained in a greenhouse at a 60% to 80% relative humidity. The rate of infection on the leaves was made after about 14 days. The percent disease control provided by a given test compound was based on the percent disease reduction relative to untreated check plants.

The subject of assay [4] is Celery Late Blight organism Septoria apii. In words: whole plant or invertebrate.
In assay [5] the test system is Tomato Early Blight organism Alternaria solani conidia. In words: Tomato Early Blight control, tomato seedlings. The note with it: inoculated 1 day later, about 12 days. As for the experimental part:
Compounds of the invention were tested for the control of the Tomato Early Blight organism Alternaria solani conidia. Tomato (variety Bonny Best) seedlings of 6- to 7-weeks old were used. The tomato plants were sprayed with a 250-ppm solution of the test compound in an acetone-and-water solution containing a small amount of a nonionic emulsifier. The sprayed plants were inoculated 1 day later with the organism, placed in the environmental chamber and incubated at 66° F. to 68° F. and 100% relative humidity for 24 hours. Following the incubation, the plants were maintained in a greenhouse for about 12 days. Percent disease control was based on the percent disease development on untreated check plants.

The test system of assay [6] is Rice Blast organism Piricularia oryzae. As to the kind of experiment: whole plant or invertebrate.

`CCCN(CC(=O)Nc1c(C)cccc1C)C(=O)c1cccnc1` [Compound 2, N-(2,6-dimethylphenyl)-N'-(n-propyl), N'-(3-pyridylcarbonyl) glycinamide]: the “Fungicidal Activity % Control TLB” value in assay [1] (250 ppm, tomato, inoculated 1 day later, approximately 7 days) is on record as 10%. Also, the “Fungicidal Activity % Control BPM” value in assay [2] (250 ppm) is recorded as 53%. In assay [3] (250 ppm, detached Vitis vinifera leaves), the “Fungicidal Activity % Control GDM” value amounted to 7%. Further, the “Fungicidal Activity % Control BR” value in the assay with Uromyces phaseoli tipica (250 ppm) was 0%. For the same molecule, the “Fungicidal Activity % Control CLB” value in assay [4] (250 ppm, celery (Utah), approximately 14 days) stood at 58%. Besides, in assay [5] (250 ppm), the “Fungicidal Activity % Control TEB” value is given as 22%. For the same molecule, the “Fungicidal Activity % Control RB” value in assay [6] (625 ppm, rice (Calrose M-9), inoculated 1 day later, about 12 to 16 days) was 0%.

Regarding `CCCN(CC(=O)Nc1c(Cl)cc(Cl)cc1Cl)C(=O)c1cccnc1` [Compound 1, N-(2,4,6-trichlorophenyl), N'-(n-propyl), N'-(3-pyridylcarbonyl) glycinamide], the activity at 250 ppm is 0% in assay [1] (Phytophthora infestans, read-out: Fungicidal Activity % Control TLB); 100% in assay [2] (Erysiphe polygoni, read-out: Fungicidal Activity % Control BPM); 3% in assay [3] (Plasmopara viticola, in Vitis vinifera, read-out: Fungicidal Activity % Control GDM); 4% in the assay with Uromyces phaseoli tipica (Uromyces phaseoli, 336 h, read-out: Fungicidal Activity % Control BR); 50% in assay [4] (336 h, read-out: Fungicidal Activity % Control CLB); 85% in assay [5] (Alternaria solani, read-out: Fungicidal Activity % Control TEB). Besides, the activity at 625 ppm in assay [6] (Pyricularia oryzae, read-out: Fungicidal Activity % Control RB) is 0%.

The record behind these values is US4661494A (priority 1985, dated 1987).
